Legend:
PC3 cells = test: Intracellular lactate determination; format: cell-based, Human; settings: 6 h
Description: Cytosolic metabolism of glucose to pyruvate occurs before its entry into mitochondria for oxidative phosphorylation. However, if not metabolized through oxidative phosphorylation as found in cancer, pyruvate gets converted by lactate dehydrogenase through glycolysis to lactate. Glycolysis in the absence of oxidative phosphorylation in cancer causes rise in lactate concentration. To test the ability of MITO-DCA to switch glucose metabolism from glycolysis to oxidative phosphorylation in cancer cells, intracellular lactate levels in glycolytic PC3 cells were measured and compared the value with those observed in less glycolytic LNCaP and normal MSC cells (FIG. 5A). To understand the importance of mitochondria targeting ligand and to explore the importance of a Tris platform to increase number of DCA molecule per targeting ligand, the parent drug Na-DCA and TPP-DCA were used as controls. Treatment of PC3 cells with 50 μM of MITO-DCA for 6 h reduced the intracellular lactate levels by 58±5%. […] Pronounced lactate concentration differences were observed between […] glycolytic PC3 and healthy MSC cells (FIG. 5A). […] None of the DCA compounds has any effect on the lactate levels in MSC cells (FIG. 5A).
PC3, LNCaP, and MSC cells were seeded at a density of 1×10^6 cells/mL on each well of a 12 well plate and allowed to grow overnight at 37° C. under 5% CO2. Cells were treated with 150 μM Na-DCA, 150 μM TPP-DCA, and 50 μM MITO-DCA for 6 h at 37° C. After 6 h, the media was removed and the cells were homogenized. The lysate was added to the enzyme and substrate working reagent mixture and incubated for 30 min. Lactate concentration was measured using Bio-Tek Synergy HT microplate reader at 450 nm and comparing to a standard curve.

[1] = system: mouse bone marrow derived dendritic cells (BMDCs); test: Cytokine secretion of BMDCs activated with supernatants of treated PC3 cells (ELISA); format: cell-based; settings: for IL-12 secretion from BMDCs: BMDCs 24 h
Description: Cancer cells recruit several pathways to evade elimination by the immune system (Kim et al., Immunology 121:1-14, 2007). Several mechanisms by which tumor cells escape immunity include upregulation of inhibitory molecules, production of immunosuppressive cytokines, and downregulation of costimulatory molecules (Rabinovich et al., Annu. Rev. Immunol. 25:267-296, 2007). Dendritic cells (DCs), the major players for the initiation of a specific anti-tumor T-cell response, are potential target to tumor-mediated immunosuppression. (Gabrilovich et al., Nat. Med. 2:1096-1103, 1996; Radmayr et al., Int. J. Cancer 63:627-632, 1995; Orsini et al., Cancer Res. 63:4497-4506, 2003.) Lactic acid secretion in highly proliferative glycolytic tumor has the ability to induce alteration in antigen phenotype and functional activity of DCs, which contributes to the suppression of local immunity (Gottfried et al. 2006). Tumor derived lactic acid inhibit the differentiation of monocytes to DCs, impair DC activation and antigen expression and suppress the proliferation, cytokine production and cytotoxic activity of T cells (Fischer et al., Blood 109:3812-3819, 2007). After observing significant and very selective reduction in lactate levels in PCa cells by MITO-DCA, the impact of the reduced lactate producing PC3 cell supernatants on DCs was investigated. Cancer cell supernatants were generated by treating PC3 cells with MITO-DCA (50 μM), Na-DCA (150 μM), and TPP-DCA (150 μM) for 24 h. First, investigated was the immune responses from the PC3 supernatants upon treatment with different DCA compounds by determining pro-inflammatory and anti-inflammatory cytokines interleukin (IL)-2, IL-4, IL-6, IL-10, IL-12, tumor necrosis factor (TNF)-α, and interferon-gamma (IFN-γ) using enzyme-linked immunosorbent assay (ELISA) (FIG. 6A) (Marrache et al., Integr. Biol. 5:215-223, 2013). […] The levels of all these three cytokines were higher for MITO-DCA treated cells compared to those, which were treated with TPP-DCA or Na-DCA. When DCs are activated appropriately, they take up tumor antigens and apoptotic bodies, migrate to the T-cell-rich area of the lymph nodes, initiate a series of actions for the selection of antigen-specific T cells, and the release of the DC cytokines such as IFN-γ and IL-12. The PC3 supernatants containing the tumor antigens were added to mouse bone marrow derived dendritic cells (BMDCs) and incubated at 37° C. (Marrache et al., 2013). […]
BMDCs were isolated from 6-8 weeks old C57BL/6 mice. […] The cells were counted, resuspended and transferred to petri dishes at the final concentration of 1.5×10^6 cells/mL. […] DC purity was tested by incubating BMDCs with LPS (100 ng/mL) and measured the surface expression of CD11c. […]

[2] = supernatant of PC3 cells treated with 50 μM for 24 h

| Structure (SMILES) | Reduction of intracellular lactate levels (PC3 cells; 150 μM) [%] | IL-12 secretion from BMDCs ([1]; supernatant of PC3 cells treated with 150 μM for 24 h) | Reduction of intracellular lactate levels (PC3 cells; 50 μM) [%] | IL-10 production from BMDCs [1, 2] | TNF-α secretion from BMDCs [1, 2] | IL-12 secretion from BMDCs [1, 2] |
| --- | --- | --- | --- | --- | --- | --- |
| O=C(OCCC[P+](c1ccccc1)(c1ccccc1)c1ccccc1)C(Cl)Cl.[Br-] [TPP-DCA] | 30±2 | lesser compared to MITO-DCA |  |  |  |  |
| O=C(CCCCC[P+](c1ccccc1)(c1ccccc1)c1ccccc1)NC(COC(=O)C(Cl)Cl)(COC(=O)C(Cl)Cl)COC(=O)C(Cl)Cl.[Br-] [MITO-DCA] |  |  | 58±5 | reducing IL-10 production | highest level | significant increased secretion of IL-12 |
